Data as given in patent publication US4342762A, “Basic ethers and pharmaceutical compositions containing the same” (Egyt Gyogyszervegyeszeti Gyar, priority 1979, dated 1982).

Tests used:
[1] = acute oral toxicity, graphic method of Litchfield-Wilcoxon, 4 days observation; conditions: mouse, in vivo
Experimental: The analgesic effect of the new compounds according to the invention was determined by the method of Wirth et al. (Wirth, W., Gosswald, R., Horlein. K., Risse, Kl. H., Kreiskott, H.: Arch. Int. Pharmacodyn. 115, 1; (1958)). 0.4 ml of 0.5% acetic acid was administered i.p. to white mice, and the characteristic "writhing" reactions were counted after 5 minutes. […] The results are given in Table I. The toxicity data determined on white mice of both sexes weighing 18-24 g belonging to the strain CFLP are also given. Administration was effected with an oral dose of 20 ml/kg. After treatment the animals were kept under observation for 4 days. The toxicity data (LD50 mg/kg) were determined by the graphic method of Litchfield-Wilcoxon [Litchfield, J.T., Wilcoxon, E. W., J Pharmacol. Exp. Therap. 96, 99; (1949)].

[2] = tested on: white mice; test: analgesic effect, inhibition of acetic acid "writhing" reactions (Wirth et al.); format: in vivo; conditions: for ED50: Mus musculus, read-out: Analgesic effect ED50; for Analgesic effect Therap.index: therapeutic index
Experimental: The analgesic effect of the new compounds according to the invention was determined by the method of Wirth et al. (Wirth, W., Gosswald, R., Horlein. K., Risse, Kl. H., Kreiskott, H.: Arch. Int. Pharmacodyn. 115, 1; (1958)). 0.4 ml of 0.5% acetic acid was administered i.p. to white mice, and the characteristic "writhing" reactions were counted after 5 minutes. The compounds to be tested had been orally administered an hour before the administration of the acetic acid. The activity is expressed as a percentage of the inhibition referred to the data observed on the control group. The results are given in Table I. The toxicity data determined on white mice of both sexes weighing 18-24 g belonging to the strain CFLP are also given. Administration was effected with an oral dose of 20 ml/kg. After treatment the animals were kept under observation for 4 days. The toxicity data (LD50 mg/kg) were determined by the graphic method of Litchfield-Wilcoxon [Litchfield, J.T., Wilcoxon, E. W., J Pharmacol. Exp. Therap. 96, 99; (1949)].

[3] = tested on: white mice; test: inhibition of maximal electroshock (MES) (Swinyard et al.); format: in vivo; conditions: for ED50: Mus musculus, oral, 1 hour before electroshock 50 Hz, 45 mA, 0.4 sec, total inhibition of tonic extensor convulsion; for Inhibition of MES Th. I.: therapeutic index
Experimental: (§1) The antiepileptic effect was investigated on white mice, after oral administration. The inhibition of maximal electroshock (MES) was determined by the method of Swinyard et al. [Swinyard et al. J. Pharmacol. Exp. Ther. 106, 319-330 (1952)]. White mice weighing 20-25 g were subjected to electric shock through corneal electrodes (Parameters: 50 Hz, 45 mA, 0.4 sec.). The total inhibition of the tonic extensor convulsion was considered as criterion of the anti-convulsive effect. The test-substance had been orally administered one hour before the electroshock. The inhibition of pentetrazole convulsion was determined on white mice by the modified method of Banziger and Hane [Banziger, R., Hane, L.D. Arch. Int. Pharmacodyn. 167, 245-249; (1967)]. I." stands for "therapeutic index."

[4] = tested on: white mice; test: inhibition of pentetrazole convulsion (modified Banziger and Hane); format: in vivo; conditions: for ED50: Mus musculus, oral; for Inhibition of pentetrazole convulsion Th. I.: therapeutic index
Experimental: as §1

[5] = tested on: white mice; test: inhibition of nicotine-lethality (Stone); format: in vivo; conditions: for ED50: Mus musculus, oral, 1 hour before 1.4 mg/kg nicotine
Experimental: The inhibition of nicotine-lethality was determined on white mice by the method of Stone [Stone, C. A., Mecklenburg, K. L., Torchiana, M. L., Arch. Int. Pharmacodyn.

[6] = tested on: mice; test: potentiating of hexobarbital-narcosis (Kaergaard); format: in vivo; conditions: for ED50: Mus musculus, iv, 40 mg/kg hexobarbital i.v., positive: sleeping period at least 2.5 times control; for Potentiating of narcosis Th.I.: therapeutic index
Experimental: (§2) The effect on the inhibition of the oriental activity (inhibition of the motility) was investigated on white mice in a Dews apparatus applied with 8 canals by the method of Borsy [Borsy, J., Csanyi, E., Lazar, I., Arc. Int. Pharmacodyn. 124, 1-2 (1960)]. After an oral pretreatment of 30 minutes the number of light-interruptions due to the movements of groups consisting of 3-3 mice was registered. The observation lasted for 30 minutes. The effect of the compounds exerted on the duration of hexobarbital-narcosis was tested by the method of Kaergaard [Kaergaard, N. C., Magnussen, M. P., Kampmann, E., Frey, H. H., Arc. Int. Pharmacodyn. 2, 170; (1967)]. Groups of animals consisting of 6-6 mice were treated.

[7] = tested on: white mice; test: inhibition of motility, Dews apparatus (Borsy); format: in vivo; conditions: for ED50: Mus musculus, oral pretreatment 30 minutes, observation 30 minutes; for Inhibition of motility Th.I.: therapeutic index
Experimental: as §2

[8] = oral, 20 ml/kg, both sexes 18-24 g, 4 days observation
[9] = oral, 1 hour before i.p. 0.4 ml 0.5% acetic acid

Structure (SMILES)	LD50 at 96 h [1, 8] [mg/kg]	ED50 ([2]; po) [mg/kg]	Analgesic effect Therap.index [2]	ED50 [3] [mg/kg]	Inhibition of MES Th. I. [3]	ED50 [4] [mg/kg]	Inhibition of pentetrazole convulsion Th. I. [4]	ED50 [5] [mg/kg]	Inhibition of nicotine-lethality Therapeutic index [5]	ED50 [6] [mg/kg]	Potentiating of narcosis Th.I. [6]	ED50 [2, 9] [mg/kg]	ED50 [7] [mg/kg]	Inhibition of motility Th.I. [7]	LD50 at 96 h ([1]; po) [mg/kg]
CC(COC1(Cc2ccccc2)CC2CCC1(C)C2(C)C)CN(C)C (racemic) [Example 2, (±)-2-benzyl-2-(3'-dimethylamino-2'-methylpropoxy)-1,7,7-trimethyl-bicyclo(2,2,1) heptane]	1700	85	20.0	120	14.2	88	19.3	20	85,0	15	113.3	–	–	–	–
CCN(CC)CCCOC1(Cc2ccccc2)CC2CCC1(C)C2(C)C (racemic) [Example 6, (±)-2-benzyl-2-(3'-diethylaminopropoxy)-1,7,7-trimethyl-bicyclo(2,2,1)heptane]	2000	–	40.0	120	16.7	54	37.0	–	–	80	25.0	50	100	20.0	–
CN(C)CCOC1(c2ccccc2)CC2CCC1(C)C2(C)C (racemic) [Example 15, (±)-2-(2'-dimethylaminoethoxy)-2-phenyl-1,7,7-trimethyl-bicyclo(2,2,1)heptane]	900	23	39.0	–	–	–	–	30	30.0	40	22.5	–	–	–	–
CC(COC1(c2ccc(Cl)cc2)CC2CCC1(C)C2(C)C)CN(C)C (single isomer, unassigned; (+)) [Example 13, (+)-2-[(3'-dimethylamino-2'-methyl)-propoxy]-2-(p-chloro-phenyl)-1,7,7-trimethyl-bicyclo(2,2,1)heptane]	–	–	10.0	140	14.3	140	14.3	–	–	–	–	200	170	11.8	2000
CN(C)CCCOC1(Cc2ccccc2)CC2CCC1(C)C2(C)C (single isomer, unassigned) [Example 7, D-(-)-2-benzyl-2-(3'-dimethylaminopropoxy)-1,7,7-trimethyl-bicyclo(2,2,1)heptane]	1200	70	17.1	56	21.4	66	18.2	25	48.0	–	–	–	90	13.3	–
CC(C)N(CCCOC1(Cc2ccccc2)CC2CCC1(C)C2(C)C)C(C)C (racemic) [Example 5, (±)-2-benzyl-2-(3'-diisopropylaminopropoxy)-1,7,7-trimethyl-bicyclo(2,2,1)heptane]	2000	–	20.0	380	5.3	140	14.3	–	–	120	16.7	100	190	10.5	–
CN(C)CCCOC1(Cc2ccccc2)CC2CCC1(C)C2(C)C (racemic) [Example 1, (±)-2-benzyl-2-(3'-dimethylaminopropoxy)-1,7,7-trimethyl-bicyclo(2,2,1)heptane]	1600	120	13.3	130	12.3	–	–	38	42.1	90	17.7	–	110	14.5	–
CCN(CC)CCOC1(c2cccs2)CC2CCC1(C)C2(C)C (racemic) [Example 17, (±)-2-(2'-diethylaminoethoxy)-2-(2"-thienyl)-1,7,7-trimethyl-bicyclo(2,2,1)heptane]	980	50	19.6	–	–	60	16.3	50	–	–	–	–	–	–	–
CCN(CC)CCOC1(Cc2ccccc2)CC2CCC1(C)C2(C)C (single isomer, unassigned) [Example 8, D-(+)-2-benzyl-2-(2'-diethylaminoethoxy)-1,7,7-trimethyl-bicyclo(2,2,1)heptane]	850	45	18.9	30	28.3	20	42.5	11	77.3	60	14.2	–	60	14.2	–
OC(CCN1CCCCC1)(c1ccccc1)C1CCCCC1 (stereo not drawn) [Trihexyphenidyl, α-Cyclohexyl-α-phenyl-1-piperidine-propanol, reference compound]	–	–	–	–	–	–	–	40	9.13	–	–	–	–	–	–
